Results from a melting point compilation (Tetko et al.; mined from patent text by program, amines drawn as free bases though some values may be those of a salt).

SMILES | melting point
CN1c2ccccc2C(C)(C)C1CC#N (configuration not stated) | 74 to 76 °C
CCCCOC(=O)Nc1cccc(NC(=O)C=C(C)OC)c1 | 100 °C
CC1(C)NC(=O)c2ccc(O)cc21 | 231 to 233 °C
CC(C)OC(=O)c1ccccc1C(=O)O | 73 to 77 °C
CNC(=O)ON=C1SCS(=O)CS1 (configuration not stated) | 175 to 177 °C
COC(=O)C=C(Nc1ccccc1C#N)C(=O)OC | 116 to 118 °C
COc1ccc(CS(=O)(=O)/C(=C/c2ccc(Br)cc2)C(=O)c2ccc(Br)cc2)cc1 | 146 to 150 °C
CCCCCCCCCCCCCCCCSCC(CNS(=O)(=O)CCCCl)NC(C)=O (configuration not stated) | 86 to 88 °C
CC(=O)Nc1ccc(OC2SCC(OC(C)=O)C(OC(C)=O)C2OC(C)=O)cc1 (configuration not stated) | 166 °C
CCOCC(=O)C(=CN(CC)CC)c1cccc(C(F)(F)F)c1 | 131 to 133 °C
CCOC(=O)C1CCc2c(C)c(O)c(C)c(C)c2O1 (configuration not stated) | 108 to 109 °C
CN1C(=O)C(CC(O)C#N)c2ccccc21 (configuration not stated) | 136 to 138 °C
O=C(C[C@@H](O)C(F)(F)F)N[C@H]1CC[C@H](CCN2CCN(c3nccc4c3CCO4)CC2)CC1 | 207 °C
CCCn1c(=O)c2[nH]c(-c3ccc(C(=O)N(CC)CC)o3)nc2n(CCC)c1=O | 247 to 250 °C
Cn1nc(-c2cc(C=O)c(Cl)cc2F)c(Cl)c1OC(F)F | 95 to 98 °C
CCC(=O)NN(C(C)=O)[C@@H]1c2cc(C#N)ccc2OC(C)(C)[C@H]1O (relative stereo) | 201 to 203 °C
Nc1cc(C(=O)NC2CC2)n(-c2nc(Cl)nc3ccoc23)n1 | 219 °C
O=C(NC12CC3CC(CC(C3)C1)C2)c1cc(O)c(O)cc1Cl | 225 to 230 °C
CN(c1ccc(I)cc1)S(C)(=O)=O | 106 to 107 °C
CCc1c(Cl)ccc2c1C=C(C(=O)O)C(C(F)(F)F)O2 (configuration not stated) | 172 °C
N#CSCCNc1cc(Cl)ccc1[N+](=O)[O-] | 115 to 116 °C

SMILES | melting point
O=C1C(=Cc2ccc(Cl)cc2)CC23OC2C=CC=C13 (configuration not stated) | 162 to 164 °C
CCc1nn(C2CN(C(C)C)C2)c2c(=O)[nH]c(-c3cc(S(C)(=O)=O)ccc3OCC(C)C)nc12 | 206 to 209 °C
Cc1c(C)c2c(c(C)c1O)CCC(C)(C(=S)Nc1cc(C(C)(C)C)c(O)c(C(C)(C)C)c1)O2 (configuration not stated) | 172 to 174 °C
COc1ccc(-c2c(C(=O)CC(C)C)c(CBr)nc3cc(OC)c(OC)cc23)cc1OC | 159 to 161 °C
CCOC(=O)C1=C(COCC(N)=O)NC(C)=C(C(=O)OC)C1c1ccccc1Cl (configuration not stated) | 127 to 128 °C
O=C1CC(O)c2c1cc[nH]c2=O (configuration not stated) | 200 °C
CSc1cn(C)c2cc(Cl)sc2c1=O | 231 to 234 °C
CC(C)OC(OC(C)C)(O[C@H](C)Cn1cnc2c(Cl)nc(N)nc21)P(=O)(O)O | 130 to 132 °C
CC(C)N1C(=O)NC(c2ccc3c(c2)OCCO3)c2cc3c(cc21)OCCO3 (configuration not stated) | 92 to 95 °C
CCCN(C(=O)CBr)c1ccc([N+](=O)[O-])cc1C(=O)c1ccccc1 | 122 °C
CS(=O)(=O)Nc1cc(C(c2cc(F)ccc2F)S(=O)(=O)c2ccc(F)cc2)c(Cl)cn1 (configuration not stated) | 178 to 179 °C
CCOC(=O)N1CCC(Nc2ccc(C(F)(F)F)c([N+](=O)[O-])c2)CC1 | 127 °C
O=C(Cl)ON1C(=O)c2ccccc2C1=O | 113 to 115 °C
COc1ccc(Br)c(C=C(C#N)C(=O)O)c1OC | 130 to 132 °C
COc1ccc(-c2ccc(OC)cc2[N+](=O)[O-])c([N+](=O)[O-])c1 | 134 to 137 °C
Cc1cc2c(cc1-c1c[nH]c(C=O)c1)C(C)(C)CCC2(C)C | 128 to 129 °C
CC(=O)Nc1cccc(NC(C)=O)c1 | 190 to 191 °C
COCc1ccc(C(=O)O[C@H](CC(C)C)C(=O)O)o1 | 73 to 74 °C
CS(=O)(=O)c1ccc(C(=O)O)c(Cl)c1F | 204 °C
COC12CC(CO)CN(C)C1Cc1cn(C(C)(C)C)c3cccc2c13 (configuration not stated) | 172 to 174 °C

The remaining lines, values ahead:

melting point | SMILES
181 to 183 °C | CCCCc1nc(C(O)(CC)CC)c(C(=O)O)n1Cc1ccc(-c2ccccc2-c2nnn[nH]2)cc1
102 to 104 °C | COCc1nc2c3c(ccn2c1C)[C@@H](O)[C@H](O)[C@@H](c1ccccc1)N3
114 to 116 °C | CC(=O)C(C(=O)NS(=O)(=O)c1ccc(C)cc1)C(=O)c1ccccc1 (configuration not stated)
184 to 185 °C | COc1ccc(OC)c(S(=O)(=O)N2CCC(N3N=C(c4ccc(OC)c(OC)c4)CCC3=O)CC2)c1
152 to 156 °C | CC(C)c1ccc2c(c1)c(-c1ccccc1Cl)c(NC(=O)Nc1ccc(F)cc1F)c(=O)n2C
166 to 168 °C | CCOC(=O)c1cc(=O)c2cccc(NC(=O)c3ccc4c(c3)CC(COCc3ccccc3)O4)c2o1 (configuration not stated)
87 to 89 °C | CCCCCCCC(=O)OCc1ccccc1-c1nc(-c2cccc(OCC)c2)n[nH]1
179 to 180 °C | CCOC(=O)C(C#N)=Cc1c(Cl)n(Cc2ccc(Cl)cc2)c2ccccc12
221 to 222 °C | CN1C(=O)CC(c2ccc(N)cc2)C1C(O)c1ccc(-c2ccccc2)s1 (configuration not stated)
93 to 95 °C | CCOc1ccccc1OCC(O)CCN1C(=O)c2ccccc2C1=O (configuration not stated)
> 300 °C | O=[N+]([O-])c1ccc(-c2cnn3c(O)ncnc23)cc1
111 °C | c1cc(CN2CCCCC2)cc(OCCCNc2ncnc3ccccc23)c1
77 to 78 °C | Cc1ccc2c(c1)N=Cc1cccc3c1N2CC3
172 to 174 °C | CC(C)(C)C(=O)Nc1ccc(C=CC(=O)N2CCc3c([nH]c4ccccc34)C2c2ccc3c(c2)OCO3)cc1 (configuration not stated)
192 °C | COc1ccc2ccc(N3C(=O)c4ccccc4C3OCC(=O)N3CCOCC3)nc2n1 (configuration not stated)
92 to 94 °C | COC(CN(C)c1nccc(Oc2ccc(NC(=O)c3cc(F)cc(N4CCOCC4)c3)c3ccccc23)n1)OC
173 °C | CCCCOc1ccc(S(=O)(=O)C2(C(=O)O)CCN(Cc3ccc(OC)cc3)CC2)cc1
158 to 159 °C | COC(=O)C(O)=CC(=O)c1cn(Cc2ccccc2)c(=O)n(Cc2ccccc2)c1=O
85 to 87 °C | CCOC(=O)CCCCCOc1ccc(-c2ccccc2)c(-c2ccccc2)n1

melting point | SMILES
115 to 118 °C | Cc1c(-c2cccc(O)c2)n(Cc2ccc(OCCN3CCCCC3)cc2)c2ccc(O)cc12
277 to 280 °C | O=C1Nc2cc(C(F)(F)F)ccc2C1c1ncnc2c1cnn2C1CCCCC1 (configuration not stated)
267 to 269 °C | O=C(c1ccc(S(=O)(=O)c2ccc3cc(Cl)ccc3c2)cc1)N1CCN(c2ccncc2)CC1
195 to 197 °C | CN1C(=O)C(c2cccc(-c3cccnc3F)c2)(c2cnn(CCF)c2)N=C1N (configuration not stated)
203 to 204 °C | Cc1nc(-c2ccccc2)n(-c2ccc(S(N)(=O)=O)cn2)n1
192 to 194 °C | CCc1[nH]n(C2CCCC2)c2nc(-c3ccccc3-n3ccnc3)nc(=O)c1-2
141 to 143 °C | CCCC12CCC3c4ccc(OC)cc4CCC3C1CCC2O (configuration not stated)
83 to 84 °C | COc1ccc(C=CC(=O)c2cccc(OCCCCCBr)c2)cc1
134 to 135 °C | COC(=O)C(=Cc1ccc(OCc2ccccc2)cc1)C(=O)OC
104 to 105 °C | CCC(CNC(=O)Cc1c(Cl)cncc1Cl)c1cccc(OC)c1 (configuration not stated)
302 to 304 °C | O=c1[nH]c(=O)n2c3c(cccc13)S(=O)c1ccc(C(F)(F)F)cc1-2 (configuration not stated)
184 to 187 °C | N=C(NCC1(O)COc2ccccc2OC1)Nc1ccccc1
128 to 131 °C | CC(=O)C(=NNc1cccc(Cl)c1)Sc1ccc(Cl)cc1
169 °C | CS(=O)(=O)c1ccc(-c2cc(C(=O)c3ccc(Cl)cc3)sc2N2CCOCC2)cc1
58 to 61 °C | COc1ccc2cc([C@H](C)C(=O)OCCSCCO)ccc2c1
147 to 148 °C | COC(=O)CCCc1cc2nc(Cl)ccc2n1S(=O)(=O)c1cccc(-c2cncs2)c1
145 to 147 °C | N#Cc1ccc2c(c1)Sc1ccccc1CC2
130 °C | NCCN1CCC(NC(=O)c2cc(Cl)c(N)c3c2OCCC3)CC1
109 to 114 °C | COc1ccc2c(c1)c(Cc1csc(-c3ccncc3)n1)c(C)n2C(=O)c1ccc(Cl)cc1

melting point | SMILES
214 to 216 °C | CCOC(=O)c1cn(-c2ccc(F)cc2)c2cc(-c3cc(C)no3)ccc2c1=O
69 to 72 °C | c1ccc(C(c2ccccc2)N2CCCC2)cc1
224 to 225 °C | c1ccc(-c2ccc(NCc3nccc(-c4ccc(-c5ccc(N(c6ccccc6)c6ccccc6)cc5)cc4)n3)cc2)cc1
127 to 128 °C | COc1ccc(COc2cncc3c2C(=O)c2c(NCCN(C)C)ccc(Cl)c2C3=O)cc1
250 to 252 °C | Cc1ccc(Cl)c(Nc2ccccc2-c2n[nH]c(=S)s2)c1Cl
242 to 243 °C | CC(=O)Nc1nc2c(Oc3cc(-c4ccc(C(F)(F)F)cc4I)ncn3)cccc2s1
137 to 138 °C | CC(C)(C)OC(=O)NC(Cc1c[nH]c2ccccc12)C(=O)C=Cc1cc(C(F)(F)F)cc(C(F)(F)F)c1 (configuration not stated)
238 to 241 °C | CCCCc1nc2ccc(C(=O)O)cc2n1Cc1ccccc1Cl
272 to 273 °C | CC(=O)c1cc2c(s1)S(=O)(=O)CCc1cc(=O)n(-c3ccc(Cl)cc3)nc1-2
47 to 48 °C | Cc1noc(NS(=O)(=O)c2ccc(NCc3ccccc3)cc2)c1C
132 to 135 °C | S=C(Nc1cccc(Cl)c1)N1CCCSC1c1ccccc1 (configuration not stated)
107 to 108 °C | CC(C)Oc1nn(CCO)cc1C(=O)NCc1ccc(C(F)(F)F)cc1
162 to 164 °C | CN1C(=O)c2ccccc2OC1(C)COc1ccc(N)cc1 (configuration not stated)
89 to 91 °C | CCOC(=O)c1cnc2c(cnn2-c2ccccc2)c1N(Cc1cccnc1)S(=O)(=O)c1ccc(OC)cc1
60 to 62 °C | COC(=O)C(C)(C)CCCOc1cc(C)c(NC(=O)C(C)(C)CCCOc2cc(C)ccc2C)cc1C
160 to 161 °C | CC(=O)SCC(Cc1ccccc1)C(=O)Nc1cc(C)cc(C(=O)O)c1 (configuration not stated)
174 to 175 °C | COc1ccc(-c2cccc(NC(N)=O)c2)cc1OC1CCCC1
186 to 188 °C | O=S(=O)(Cl)c1ccc(Nc2nccc(-c3ccc(C(F)(F)F)cc3)n2)cc1
